Drawing on the SangsterLogP compilation, this text covers logP for twelve compounds.

One may read the logP as the decadic logarithm of the partition coefficient of the neutral form, usually between octanol and water. A higher logP goes with higher lipophilicity.

The data set in a line: method code SF-GLC, from DOI: 10.1007/bf00316585, PMID: 6732504.
Regarding `CC(C)CCC#N`, the logP is 1.54.
To `N#CCCl` belongs 0.23; to `CCCCCCCCC#N`, 3.12.
With `CCCCCCCC#N`, the logP came out at 2.75.
`N#CCCO`: the logP was -0.94.
Consider `CCCC#N`, for which the logP was found to be 0.53.
`CC(C)C#N`: the logP is 0.46. This logP and that of the compound before are within 0.2 log units of each other.
For `N#CCCCCl` the value was 0.56; for `CCCCCC#N`, 1.66.
As to `C=CCC#N`, the log partition coefficient (logP) was determined as 0.4.
The compound `C=C(C)C#N` had a log partition coefficient (logP) of 0.68.
`N#CCCCl` yielded a logP of 0.18.
